The text below walks through data of the supplement of paper PMC10307832.

Holding throughout (test): relative viability (nuclei count vs DMSO), 5 days (fraction); higher = more cells survive
Compound in test [1]: C1CNCCC1C2=CC(=NN2)C3=CC=NC=C3 + Cc1cc(Nc2cc(N3CCN(C)CC3)nc(Sc3ccc(NC(=O)C4CC4)cc3)n2)n[nH]1 [Tozasertib] (partner 0.1 µM)
In outline:
(§1)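 One day after seeding in 1536-well plates, lung cancer cell lines were dosed by pin tool. Dosing was either single-drug or a fixed anchor-drug dose plus five library-drug doses (not always all listed) in √10 steps. After 5 days, nuclei were stained in one fix-and-stain step and counted on 4× images, and relative viability is the nuclei count of treated wells over that of vehicle wells, given as the median of duplicate plates.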

Compound in test [2]: C[C@@H](N)c1ccc(C(=O)Nc2ccnc3[nH]ccc23)cc1 + CC(=O)Nc1cccc(-n2c(=O)n(C3CC3)c(=O)c3c(Nc4ccc(I)cc4F)n(C)c(=O)c(C)c32)c1 [Trametinib] (partner 0.02 µM)
The essentials: as §1

Compound in test [3]: C[C@@H](N)c1ccc(C(=O)Nc2ccnc3[nH]ccc23)cc1 + Nc1nc2[nH]cc(CCc3ccc(C(=O)N[C@@H](CCC(=O)O)C(=O)O)cc3)c2c(=O)[nH]1 [Pemetrexed] (partner 0.2 µM)
In outline:
as §1

Compound in the test “Tanzisertib + Dasatinib”: O[C@H]1CC[C@H](Nc2ncc3nc(Nc4c(F)cc(F)cc4F)n([C@H]4CCOC4)c3n2)CC1 [Tanzisertib] + Cc1nc(Nc2ncc(C(=O)Nc3c(C)cccc3Cl)s2)cc(N2CCN(CCO)CC2)n1 [Dasatinib] (partner 0.075 µM)
In outline: as §1

Consider NCI-H2085, for which the relative viability in test [1] (first compound 0.08 µM) was 0.934; in test [1] (first compound 2.53 µM), 0.847; in test [1] (first compound 8 µM), 0.832; in test [2] (first compound 0.04 µM), 0.653; in test [2] (first compound 0.1265 µM) it was 0.702; in test [2] (first compound 0.4 µM) it was 0.652. The relative viability in test [2] (first compound 1.265 µM) was found to be 0.726; in test [2] (first compound 4 µM), 0.583; in test [3] (first compound 0.04 µM), 0.825; in test [3] (first compound 0.1265 µM), 0.863; in test [3] (first compound 0.4 µM), 0.732; in test [3] (first compound 1.265 µM) it was 0.733. Also, the relative viability came to 0.668 in test [3] (first compound 4 µM); 0.22 with Tanzisertib + Dasatinib (first compound 0.08 µM); 0.246 with Tanzisertib + Dasatinib (first compound 0.253 µM); 0.24 in the test with Tanzisertib + Dasatinib (first compound 0.8 µM); 0.224 with Tanzisertib + Dasatinib (first compound 2.53 µM); 0.261 with Tanzisertib + Dasatinib (first compound 8 µM).

Regarding NCI-H2087, the relative viability in test [1] (first compound 0.08 µM) was 0.267; in test [1] (first compound 0.8 µM) it was 0.231; in test [1] (first compound 2.53 µM), 0.226; in test [1] (first compound 8 µM), 0.202; in test [2] (first compound 0.04 µM), 0.284; in test [2] (first compound 0.1265 µM) it was 0.214. The relative viability in test [2] (first compound 0.4 µM) was 0.202; in test [2] (first compound 1.265 µM) it was 0.229; in test [2] (first compound 4 µM), 0.251; in test [3] (first compound 0.04 µM), 0.654; in test [3] (first compound 0.1265 µM), 0.651; in test [3] (first compound 0.4 µM) it was 0.65. The relative viability in test [3] (first compound 1.265 µM) was 0.571; in test [3] (first compound 4 µM), 0.577; with Tanzisertib + Dasatinib (first compound 0.08 µM) it was 0.842; with Tanzisertib + Dasatinib (first compound 0.253 µM) it was 0.876; with Tanzisertib + Dasatinib (first compound 0.8 µM), 0.77; with Tanzisertib + Dasatinib (first compound 2.53 µM) it was 0.967. For the same cell line, the relative viability with Tanzisertib + Dasatinib (first compound 8 µM) came to 0.686.

With NCI-H2126, the relative viability in test [1] (first compound 0.08 µM) turned out to be 0.674; in test [1] (first compound 0.8 µM) it was 0.974; in test [1] (first compound 2.53 µM), 0.916; in test [1] (first compound 8 µM), 0.858; in test [2] (first compound 0.04 µM), 0.515; in test [2] (first compound 0.1265 µM), 0.561. Besides, the relative viability in test [2] (first compound 0.4 µM) amounted to 0.534; in test [2] (first compound 1.265 µM), 0.637; in test [2] (first compound 4 µM) it was 0.676; in test [3] (first compound 0.04 µM), 0.697; in test [3] (first compound 0.1265 µM), 0.684; in test [3] (first compound 0.4 µM), 0.764. The relative viability in test [3] (first compound 1.265 µM) amounted to 0.57; in test [3] (first compound 4 µM), 0.738; with Tanzisertib + Dasatinib (first compound 0.08 µM), 0.614; with Tanzisertib + Dasatinib (first compound 0.253 µM), 0.626; with Tanzisertib + Dasatinib (first compound 0.8 µM) it was 0.614; with Tanzisertib + Dasatinib (first compound 2.53 µM), 0.628. Besides, the relative viability with Tanzisertib + Dasatinib (first compound 8 µM) was found to be 0.572.

Regarding NCI-H2170, the relative viability was determined as 0.667 in test [1] (first compound 0.08 µM); 0.621 in test [1] (first compound 0.8 µM); 0.775 in test [1] (first compound 2.53 µM); 0.681 in test [1] (first compound 8 µM); 0.959 in test [2] (first compound 0.04 µM); 0.944 in test [2] (first compound 0.1265 µM). Also, the relative viability in test [2] (first compound 0.4 µM) turned out to be 0.926; in test [2] (first compound 1.265 µM), 0.999; in test [2] (first compound 4 µM) it was 0.939; in test [3] (first compound 0.04 µM), 0.284; in test [3] (first compound 0.1265 µM) it was 0.249; in test [3] (first compound 0.4 µM), 0.271. Besides, the relative viability in test [3] (first compound 1.265 µM) came to 0.277; in test [3] (first compound 4 µM), 0.263; with Tanzisertib + Dasatinib (first compound 0.08 µM) it was 0.625; with Tanzisertib + Dasatinib (first compound 0.253 µM) it was 0.586; with Tanzisertib + Dasatinib (first compound 0.8 µM) it was 0.574; with Tanzisertib + Dasatinib (first compound 2.53 µM), 0.568. The relative viability in the test with Tanzisertib + Dasatinib (first compound 8 µM) is 0.512.

As to NCI-H2228, the relative viability in test [1] (first compound 0.08 µM) came out at 0.28; in test [1] (first compound 0.8 µM) it was 0.191; in test [1] (first compound 2.53 µM), 0.274; in test [1] (first compound 8 µM), 0.309; in test [2] (first compound 0.04 µM), 0.556; in test [2] (first compound 0.1265 µM), 0.428. Moreover, the relative viability in test [2] (first compound 0.4 µM) is 0.886; in test [2] (first compound 1.265 µM), 0.395; in test [2] (first compound 4 µM), 0.475; in test [3] (first compound 0.04 µM), 0.342; in test [3] (first compound 0.1265 µM) it was 0.385; in test [3] (first compound 0.4 µM), 0.302. Further, the relative viability in test [3] (first compound 1.265 µM) was found to be 0.347; in test [3] (first compound 4 µM), 0.327; with Tanzisertib + Dasatinib (first compound 0.08 µM), 0.624; in the test with Tanzisertib + Dasatinib (first compound 0.253 µM), 0.524; in the test with Tanzisertib + Dasatinib (first compound 0.8 µM) it was 0.537; with Tanzisertib + Dasatinib (first compound 2.53 µM), 0.462. In the test with Tanzisertib + Dasatinib (first compound 8 µM), the relative viability is 0.433.
